Read-outs that look alike come from different tables or passages of the source.
What was measured:
various enzymes [1] = molecular target: various enzymes (Homo sapiens, UniProt P00533, G719C)
Method: (§2) Ambit profiling from Eurofins (formerly Discoverx) was conducted in accordance with the manufacturer's instructions.

various enzymes [2] = molecular target: various enzymes (Homo sapiens, UniProt Q9Y2K2); details: QSK; 1 uM
Method: as §2

various enzymes [3] = molecular target: various enzymes (Homo sapiens, UniProt P00533, T790M)
Method: as §2

various enzymes [4] = molecular target: various enzymes (Homo sapiens, UniProt P00533, DEL746-750); details: EGFR(E746-A750del); 1 uM
Method: as §2

various enzymes [5] = molecular target: T1, various enzymes (Homo sapiens, UniProt Q13873); details: BMPR2; 1 uM
T1 sequence (Q13873 27-1038): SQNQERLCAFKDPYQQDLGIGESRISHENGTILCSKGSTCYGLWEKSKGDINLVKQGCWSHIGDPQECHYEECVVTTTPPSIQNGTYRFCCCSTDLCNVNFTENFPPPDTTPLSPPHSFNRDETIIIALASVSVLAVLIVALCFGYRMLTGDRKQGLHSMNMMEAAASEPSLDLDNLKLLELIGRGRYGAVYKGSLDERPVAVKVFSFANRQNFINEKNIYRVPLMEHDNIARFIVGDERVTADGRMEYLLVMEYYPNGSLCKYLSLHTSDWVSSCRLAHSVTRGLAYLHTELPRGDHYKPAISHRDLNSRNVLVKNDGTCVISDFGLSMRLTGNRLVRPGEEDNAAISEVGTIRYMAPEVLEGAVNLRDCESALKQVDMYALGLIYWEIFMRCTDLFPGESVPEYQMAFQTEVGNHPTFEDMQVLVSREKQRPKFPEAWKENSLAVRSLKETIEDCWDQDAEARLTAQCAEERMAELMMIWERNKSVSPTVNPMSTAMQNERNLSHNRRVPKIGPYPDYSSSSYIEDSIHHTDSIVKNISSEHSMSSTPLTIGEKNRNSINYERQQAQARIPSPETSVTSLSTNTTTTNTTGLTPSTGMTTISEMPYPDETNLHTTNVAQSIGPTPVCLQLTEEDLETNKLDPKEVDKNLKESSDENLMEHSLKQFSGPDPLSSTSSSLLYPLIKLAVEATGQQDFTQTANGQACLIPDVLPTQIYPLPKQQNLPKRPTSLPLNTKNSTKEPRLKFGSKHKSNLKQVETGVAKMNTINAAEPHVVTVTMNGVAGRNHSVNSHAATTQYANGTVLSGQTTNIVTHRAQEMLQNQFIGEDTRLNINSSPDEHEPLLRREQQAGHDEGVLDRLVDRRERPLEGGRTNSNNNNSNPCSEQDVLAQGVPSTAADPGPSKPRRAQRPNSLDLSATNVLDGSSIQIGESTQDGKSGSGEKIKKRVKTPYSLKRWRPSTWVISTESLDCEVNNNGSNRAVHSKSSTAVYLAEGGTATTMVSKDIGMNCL
Method: as §2

various enzymes [6] = molecular target: various enzymes (Homo sapiens, UniProt P57059); details: SIK; 1 uM
Method: as §2

various enzymes [7] = molecular target: various enzymes (Homo sapiens, UniProt Q9NYY3); details: PLK2; 1 uM
Method: as §2

various enzymes [8] = molecular target: T2, various enzymes (Homo sapiens, UniProt P36888); details: FLT3(ITD); 1 uM
T2 sequence (P36888 1-993): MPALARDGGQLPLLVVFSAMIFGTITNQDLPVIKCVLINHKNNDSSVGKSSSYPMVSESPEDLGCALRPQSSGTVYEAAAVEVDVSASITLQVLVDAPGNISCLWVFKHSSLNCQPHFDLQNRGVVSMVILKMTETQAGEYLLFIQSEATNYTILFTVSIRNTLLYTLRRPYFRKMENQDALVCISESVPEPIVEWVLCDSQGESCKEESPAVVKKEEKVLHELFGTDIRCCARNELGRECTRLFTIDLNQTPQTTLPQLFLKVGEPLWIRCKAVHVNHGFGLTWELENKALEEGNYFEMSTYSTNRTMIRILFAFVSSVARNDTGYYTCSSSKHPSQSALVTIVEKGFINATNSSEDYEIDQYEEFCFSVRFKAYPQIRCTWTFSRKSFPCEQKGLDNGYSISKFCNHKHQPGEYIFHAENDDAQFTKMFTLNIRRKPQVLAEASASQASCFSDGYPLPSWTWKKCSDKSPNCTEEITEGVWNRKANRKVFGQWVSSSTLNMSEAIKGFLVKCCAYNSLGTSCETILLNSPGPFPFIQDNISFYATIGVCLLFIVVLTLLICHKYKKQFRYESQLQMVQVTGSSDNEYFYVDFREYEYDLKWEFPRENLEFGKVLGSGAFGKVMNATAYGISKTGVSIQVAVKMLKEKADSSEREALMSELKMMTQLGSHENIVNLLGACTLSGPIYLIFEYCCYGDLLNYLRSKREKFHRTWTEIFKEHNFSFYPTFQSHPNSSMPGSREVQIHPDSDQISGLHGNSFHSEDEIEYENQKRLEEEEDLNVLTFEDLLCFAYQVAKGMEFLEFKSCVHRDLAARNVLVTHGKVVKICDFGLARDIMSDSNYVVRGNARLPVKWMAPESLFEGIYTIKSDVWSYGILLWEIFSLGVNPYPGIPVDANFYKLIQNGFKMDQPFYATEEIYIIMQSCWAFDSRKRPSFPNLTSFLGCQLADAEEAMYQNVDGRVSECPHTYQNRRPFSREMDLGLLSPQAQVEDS
Method: as §2

various enzymes [9] = molecular target: T2, various enzymes; format: binding; set-up: other: FLT3(ITD); 1 uM; other: compound 1 uM; details: compound 1 uM
Method: (§1) Ambit profiling was conducted in accordance with the manufacturer's instructions.

various enzymes [10] = molecular target: various enzymes (Homo sapiens, UniProt P00533, DEL747-752/P753S); format: binding; set-up: other: EGFR(L747-S752del, P753S); 1 uM; other: compound 1 uM
Method: as §1

various enzymes [11] = molecular target: various enzymes (Homo sapiens, UniProt P00533, DEL747-749/A750P); format: binding; set-up: other: EGFR(L747-E749del, A750); 1 uM; other: EGFR(L747-E749del, A750P); other: compound 1 uM
Method: as §1

various enzymes (Homo sapiens, UniProt P57059), sequence (P57059 whole entry): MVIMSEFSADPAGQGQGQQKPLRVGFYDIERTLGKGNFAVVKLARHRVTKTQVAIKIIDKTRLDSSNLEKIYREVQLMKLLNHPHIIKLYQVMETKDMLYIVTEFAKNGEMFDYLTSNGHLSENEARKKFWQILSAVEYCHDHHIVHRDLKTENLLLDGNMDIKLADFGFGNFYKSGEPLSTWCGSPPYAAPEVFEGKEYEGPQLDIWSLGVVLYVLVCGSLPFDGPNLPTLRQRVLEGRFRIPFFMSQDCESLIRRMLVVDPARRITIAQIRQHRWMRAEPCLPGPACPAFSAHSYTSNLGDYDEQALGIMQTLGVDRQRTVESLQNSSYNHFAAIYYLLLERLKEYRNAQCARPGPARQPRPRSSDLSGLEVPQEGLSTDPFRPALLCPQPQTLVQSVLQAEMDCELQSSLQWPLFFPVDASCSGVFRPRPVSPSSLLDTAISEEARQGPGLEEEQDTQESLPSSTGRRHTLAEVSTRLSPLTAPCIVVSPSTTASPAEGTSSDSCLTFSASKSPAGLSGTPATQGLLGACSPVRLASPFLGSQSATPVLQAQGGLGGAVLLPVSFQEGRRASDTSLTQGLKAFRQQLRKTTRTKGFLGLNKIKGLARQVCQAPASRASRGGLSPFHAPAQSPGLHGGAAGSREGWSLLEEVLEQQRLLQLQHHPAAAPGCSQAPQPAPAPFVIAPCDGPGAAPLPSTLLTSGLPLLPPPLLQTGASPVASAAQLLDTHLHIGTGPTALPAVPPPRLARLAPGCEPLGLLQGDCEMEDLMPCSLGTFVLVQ
various enzymes (Homo sapiens, UniProt Q9NYY3), sequence (Q9NYY3 whole entry): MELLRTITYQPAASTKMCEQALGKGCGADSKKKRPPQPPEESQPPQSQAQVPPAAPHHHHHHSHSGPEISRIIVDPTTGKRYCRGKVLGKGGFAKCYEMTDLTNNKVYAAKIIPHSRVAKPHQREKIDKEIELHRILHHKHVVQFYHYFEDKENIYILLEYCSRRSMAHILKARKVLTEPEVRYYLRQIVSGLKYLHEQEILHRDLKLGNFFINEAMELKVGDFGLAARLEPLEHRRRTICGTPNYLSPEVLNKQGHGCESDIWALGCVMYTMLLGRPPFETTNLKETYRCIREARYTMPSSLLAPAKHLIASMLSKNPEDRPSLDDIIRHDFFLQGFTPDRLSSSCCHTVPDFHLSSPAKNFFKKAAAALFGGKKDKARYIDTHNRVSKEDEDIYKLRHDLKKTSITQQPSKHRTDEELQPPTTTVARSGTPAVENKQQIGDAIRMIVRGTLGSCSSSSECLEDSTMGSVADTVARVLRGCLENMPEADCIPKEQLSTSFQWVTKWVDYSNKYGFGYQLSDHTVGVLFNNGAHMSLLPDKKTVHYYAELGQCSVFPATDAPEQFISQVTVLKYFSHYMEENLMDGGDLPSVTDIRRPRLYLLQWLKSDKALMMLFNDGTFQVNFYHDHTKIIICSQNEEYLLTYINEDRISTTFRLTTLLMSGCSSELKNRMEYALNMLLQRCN
various enzymes (Homo sapiens, UniProt Q9Y2K2), sequence (Q9Y2K2 whole entry): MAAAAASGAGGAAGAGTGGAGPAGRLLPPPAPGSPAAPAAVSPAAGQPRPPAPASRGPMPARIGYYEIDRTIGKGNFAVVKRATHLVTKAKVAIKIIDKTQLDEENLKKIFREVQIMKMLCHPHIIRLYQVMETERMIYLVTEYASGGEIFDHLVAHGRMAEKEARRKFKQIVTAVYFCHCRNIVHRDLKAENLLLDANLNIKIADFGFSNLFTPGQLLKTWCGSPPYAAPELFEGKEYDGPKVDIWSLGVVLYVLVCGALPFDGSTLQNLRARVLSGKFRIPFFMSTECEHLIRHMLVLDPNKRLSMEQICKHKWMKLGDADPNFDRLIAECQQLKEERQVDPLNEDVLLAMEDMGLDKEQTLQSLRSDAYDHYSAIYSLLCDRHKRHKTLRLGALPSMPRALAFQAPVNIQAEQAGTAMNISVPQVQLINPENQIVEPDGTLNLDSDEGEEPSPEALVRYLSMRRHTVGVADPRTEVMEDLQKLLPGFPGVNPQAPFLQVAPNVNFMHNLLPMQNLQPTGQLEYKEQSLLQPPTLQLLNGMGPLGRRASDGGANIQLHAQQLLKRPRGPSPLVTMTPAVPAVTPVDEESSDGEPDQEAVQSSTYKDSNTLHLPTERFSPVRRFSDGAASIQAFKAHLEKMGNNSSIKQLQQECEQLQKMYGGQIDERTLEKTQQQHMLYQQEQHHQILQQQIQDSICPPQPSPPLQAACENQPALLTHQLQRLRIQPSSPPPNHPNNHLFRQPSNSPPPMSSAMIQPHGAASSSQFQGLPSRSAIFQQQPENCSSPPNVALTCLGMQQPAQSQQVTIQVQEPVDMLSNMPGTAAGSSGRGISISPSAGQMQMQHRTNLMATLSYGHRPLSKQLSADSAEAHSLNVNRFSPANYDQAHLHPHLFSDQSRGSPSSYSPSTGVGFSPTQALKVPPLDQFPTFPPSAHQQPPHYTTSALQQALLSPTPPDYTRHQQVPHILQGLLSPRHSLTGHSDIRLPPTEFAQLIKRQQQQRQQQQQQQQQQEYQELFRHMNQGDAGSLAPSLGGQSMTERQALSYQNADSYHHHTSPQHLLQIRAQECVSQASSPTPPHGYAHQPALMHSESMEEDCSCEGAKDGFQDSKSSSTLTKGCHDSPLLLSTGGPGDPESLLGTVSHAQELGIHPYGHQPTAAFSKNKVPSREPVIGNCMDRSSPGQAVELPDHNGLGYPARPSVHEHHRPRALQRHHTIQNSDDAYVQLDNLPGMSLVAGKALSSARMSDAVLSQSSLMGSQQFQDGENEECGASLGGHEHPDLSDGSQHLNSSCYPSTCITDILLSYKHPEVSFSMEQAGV

| Structure (SMILES) | Ambit profiling (various enzymes [1]; EGFR(G719C), 1 uM) | Ambit profiling (various enzymes [2]) | Ambit profiling (various enzymes [3]; EGFR(T790M), 1 uM) | Ambit profiling (various enzymes [4]) | Ambit profiling (various enzymes [5]) | Ambit profiling (various enzymes [6]) | Ambit profiling (various enzymes [7]) | Ambit profiling (various enzymes [8]) | Ambit profiling: FLT3(ITD) (various enzymes [9]) | Ambit profiling: EGFR(L747-S752del, P753S) (various enzymes [10]; compound 1 uM) | Ambit profiling: EGFR(L747-E749del, A750P) (various enzymes [11]; compound 1 uM) | Ambit profiling (various enzymes [1]) | Ambit profiling (various enzymes [3]) | Ambit profiling: EGFR(L747-S752del, P753S) (various enzymes [10]) | Ambit profiling: EGFR(L747-E749del, A750P) (various enzymes [11]) |
| --- | --- | --- | --- | --- | --- | --- | --- | --- | --- | --- | --- | --- | --- | --- | --- |
| CN1Cc2nn(C)cc2-c2cnc3[nH]cc(c3c2)-c2cnn(c2)CCCC1=O [Compound 41, (Z)-31,5-dimethyl-11H,21H,31H-5-aza-2(3,5)-pyrrolo[2,3-b]pyridina-1(4,1),3(4,3)-dipyrazolacyclononaphan-6-one] | 100 | 89 | 41 | 100 | 4.1 | 84 | 90 | 0.15 | – | – | – | – | – | – | – |
| CC(C)N1Cc2nn(C)cc2-c2cnc3[nH]cc(c3c2)-c2cn(nc2C(F)(F)F)CCCC1=O [Compound 45, (Z)-5-isopropyl-31-methyl-13-(trifluoromethyl)-11H,21H,31H-5-aza-2(3,5)-pyrrolo[2,3-b]pyridina-1(4,1),3(4,3)-dipyrazolacyclononaphan-6-one] | – | – | – | – | – | – | – | – | 0.3 | 15 | 10 | – | – | – | – |
| CN1Cc2nn(C)c(C#N)c2-c2cnc3[nH]cc(c3c2)-c2cn(nc2C(F)(F)F)CCCC1=O [Compound 48, (Z)-31,5-dimethyl-6-oxo-13-(trifluoromethyl)-11H,21H,31H-5-aza-2(3,5)-pyrrolo[2,3-b]pyridina-1(4,1),3(4,3)-dipyrazolacyclononaphane-35-carbonitrile] | – | 100 | – | 35 | 85 | 59 | 100 | 21 | – | – | – | 86 | 80 | – | – |
| COc1c2c(nn1C)CN(C(C)C)C(=O)CCCn1cc(c(C(F)(F)F)n1)-c1c[nH]c3ncc-2cc13 [Compound 50, (Z)-5-isopropyl-35-methoxy-31-methyl-13-(trifluoromethyl)-11H,21H,31H-5-aza-2(3,5)-pyrrolo[2,3-b]pyridina-1(4,1),3(4,3)-dipyrazolacyclononaphan-6-one] | – | – | – | – | – | – | – | – | 0.35 | – | – | – | – | 14 | 3.1 |

Source: patent US12157741B2, “Macrocyclic inhibitors of DYRK1A” (DANA-FARBER CANCER INSTITUTE, INC., priority 2018, dated 2024)
